Assay results published in ChEMBL document CHEMBL3603829, “Metronidazole hydrazone conjugates: Design, synthesis, antiamoebic and molecular docking studies” (Bioorg Med Chem Lett, 2015).
Each block holds one compound with its values, some of them ahead of it.

Tests used:
[1] = system: Entamoeba histolytica; assay: Antiamoebic activity against trophozoite stage of Entamoeba histolytica HM-1:IMSS after 72 hrs by microdilution method; type: functional, organism-based
[2] = Cytotoxicity against human HeLa cells assessed as cell viability at 387 nM after 24 hrs by MTT assay relative to control; type: cell-based; conditions: read-out: Activity
[3] = Cytotoxicity against human HeLa cells assessed as cell viability at 387 nM after 72 hrs by MTT assay relative to control; type: cell-based; conditions: read-out: Activity
[4] = Cytotoxicity against human HeLa cells assessed as cell viability at 387 nM after 48 hrs by MTT assay relative to control; type: cell-based; conditions: read-out: Activity
[5] = Cytotoxicity against human HeLa cells assessed as cell viability at 490 nM after 72 hrs by MTT assay relative to control; type: cell-based; conditions: read-out: Activity
[6] = Cytotoxicity against human HeLa cells assessed as cell viability at 490 nM after 24 hrs by MTT assay relative to control; type: cell-based; conditions: read-out: Activity
[7] = Cytotoxicity against human HeLa cells assessed as cell viability at 490 nM after 48 hrs by MTT assay relative to control; type: cell-based; conditions: read-out: Activity
[8] = Cytotoxicity against human HeLa cells assessed as cell viability at 360 nM after 48 hrs by MTT assay relative to control; type: cell-based; conditions: read-out: Activity
[9] = Cytotoxicity against human HeLa cells assessed as cell viability at 360 nM after 24 hrs by MTT assay relative to control; type: cell-based; conditions: read-out: Activity
[10] = Cytotoxicity against human HeLa cells assessed as cell viability at 360 nM after 72 hrs by MTT assay relative to control; type: cell-based; conditions: read-out: Activity
[11] = Cytotoxicity against human HeLa cells assessed as cell viability at 435 nM after 48 hrs by MTT assay relative to control; type: cell-based; conditions: read-out: Activity
[12] = Cytotoxicity against human HeLa cells assessed as cell viability at 435 nM after 72 hrs by MTT assay relative to control; type: cell-based; conditions: read-out: Activity
[13] = Cytotoxicity against human HeLa cells assessed as cell viability at 435 nM after 24 hrs by MTT assay relative to control; type: cell-based; conditions: read-out: Activity
[14] = Cytotoxicity against human HeLa cells assessed as cell viability at 370 nM after 24 hrs by MTT assay relative to control; type: cell-based; conditions: read-out: Activity
[15] = Cytotoxicity against human HeLa cells assessed as cell viability at 370 nM after 72 hrs by MTT assay relative to control; type: cell-based; conditions: read-out: Activity
[16] = Cytotoxicity against human HeLa cells assessed as cell viability at 370 nM after 48 hrs by MTT assay relative to control; type: cell-based; conditions: read-out: Activity
[17] = Cytotoxicity against human HeLa cells assessed as cell viability at 208 nM after 72 hrs by MTT assay relative to control; type: cell-based; conditions: read-out: Activity
[18] = Cytotoxicity against human HeLa cells assessed as cell viability at 208 nM after 24 hrs by MTT assay relative to control; type: cell-based; conditions: read-out: Activity
[19] = Cytotoxicity against human HeLa cells assessed as cell viability at 208 nM after 48 hrs by MTT assay relative to control; type: cell-based; conditions: read-out: Activity

IC50 [1]: 2020 nM
SMILES: Cc1ncc([N+](=O)[O-])n1CCOc1ccc(/C=N/NC(=O)c2ccccc2)cc1

IC50 [1]: 380 nM
SMILES: Cc1ncc([N+](=O)[O-])n1CCOc1ccc(/C=N/NC(=O)c2ccc(O)cc2)cc1
viability at 24 h, 0.387 µM [2]: 81.9% | viability at 72 h, 0.387 µM [3]: 54.4% | viability at 48 h, 0.387 µM [4]: 87.1%

IC50 [1]: 1980 nM
SMILES: Cc1ncc([N+](=O)[O-])n1CCOc1ccc(/C=N/NC(=O)c2ccc(C(C)(C)C)cc2)cc1

IC50 [1]: 490 nM
SMILES: Cc1ccc(C(=O)N/N=C/c2ccc(OCCn3c([N+](=O)[O-])cnc3C)cc2)cc1
viability at 72 h, 0.49 µM [5]: 50.8% | viability at 24 h, 0.49 µM [6]: 66.2% | viability at 48 h, 0.49 µM [7]: 83.8%

IC50 [1]: 360 nM
SMILES: Cc1ncc([N+](=O)[O-])n1CCOc1ccc(/C=N/NC(=O)c2ccc([N+](=O)[O-])cc2)cc1
viability at 48 h, 0.36 µM [8]: 88.9% | viability at 24 h, 0.36 µM [9]: 78.5% | viability at 72 h, 0.36 µM [10]: 68.3%

IC50 [1]: 430 nM
SMILES: Cc1ncc([N+](=O)[O-])n1CCOc1ccc(/C=N/NC(=O)c2ccc(N)cc2)cc1
viability at 48 h, 0.435 µM [11]: 80.1% | viability at 72 h, 0.435 µM [12]: 60.3% | viability at 24 h, 0.435 µM [13]: 79.8%

IC50 [1]: 5960 nM
SMILES: Cc1cc(C)cc(C(=O)N/N=C/c2ccc(OCCn3c([N+](=O)[O-])cnc3C)cc2)c1

IC50 [1]: 7120 nM
SMILES: COc1ccc(C(=O)N/N=C/c2ccc(OCCn3c([N+](=O)[O-])cnc3C)cc2)cc1

IC50 [1]: 2600 nM
SMILES: COc1cc(C(=O)N/N=C/c2ccc(OCCn3c([N+](=O)[O-])cnc3C)cc2)cc(OC)c1OC

IC50 [1]: 370 nM
SMILES: Cc1ncc([N+](=O)[O-])n1CCOc1ccc(/C=N/NC(=O)c2cc(O)cc(O)c2)cc1
viability at 24 h, 0.37 µM [14]: 93.4% | viability at 72 h, 0.37 µM [15]: 59.8% | viability at 48 h, 0.37 µM [16]: 92.1%

IC50 [1]: 200 nM
SMILES: Cc1ncc([N+](=O)[O-])n1CCOc1ccc(/C=N/NC(=O)c2ccc(Cl)cc2)cc1
viability at 72 h, 0.208 µM [17]: 65.9% | viability at 24 h, 0.208 µM [18]: 85.9% | viability at 48 h, 0.208 µM [19]: 93.7%

IC50 [1]: 11500 nM
SMILES: Cc1ncc([N+](=O)[O-])n1CCOc1ccc(C=O)cc1

IC50 [1]: 4390 nM
SMILES: COc1cc(OC)cc(C(=O)N/N=C/c2ccc(OCCn3c([N+](=O)[O-])cnc3C)cc2)c1
